Results reported in US6656946B2, “Aminoquinazolines which inhibit signal transduction mediated by tyrosine kinases” (Boehringer Ingelheim Pharma KG, priority 2000, dated 2003).
pIC50: −log10 of the molar value.

Tests used:
human EGF-R = target: T1, human EGF-R (Homo sapiens, UniProt P00533); assay: Inhibition of EGF-dependent proliferation of F/L-HERc cells; type: cell-based; settings: F/L-HERc cells (murine IL-3-dependent line expressing human EGF-R), stimulated with EGF 20 ng/ml, 48 hours, Cell Titer 96 AQueous assay
T1 construct: expressed in transfected cells; host or cells: F/L-HERc (murine IL-3-dependent FDC-P1 cells transduced with retroviral vector LXSN carrying the human EGF-R cDNA; packaging line GP+E86)
Text: A cell line of murine origin dependent on interleukin-3-(IL-3) which was genetically modified to express functional human EGF-R was used here. The proliferation of these cells known as F/L-HERc can therefore be stimulated either by murine IL-3 or by EGF (cf. von Rüden, T. et al. in EMBO J. 7, 2749-2756 (1988) and Pierce, J. H. et al. in Science 239, 628-631 (1988)).
The starting material used for the F/L-HERc cells was the cell line FDC-P1, the production of which has been described by Dexter, T. M. et al. in J. Exp. Med. 152, 1036-1047 (1980). Alternatively, however, other growth-factor-dependent cells may also be used (cf. for example Pierce, J. H. et al. in Science 239, 628-631 (1988), Shibuya, H. et al. in Cell 70, 57-67 (1992) and Alexander, W. S. et al. in EMBO J. 10, 3683-3691 (1991)). For expressing the human EGF-R cDNA (cf. Ullrich, A. et al. in Nature 309, 418-425 (1984)) recombinant retroviruses were used as described by von Rüden, T. et al., EMBO J. 7, 2749-2756 (1988), except that the retroviral vector LXSN (cf. Miller, A. D. et al. in BioTechniques 7, 980-990 (1989)) was used for the expression of the EGF-R cDNA and the line GP+E86 (cf. Markowitz, D. et al. in J. Virol. 62, 1120-1124 (1988)) was used as the packaging cell.
The test was performed as follows:
F/L-HERc cells were cultivated in RPMI/1640 medium (BioWhittaker), supplemented with 10% foetal calf serum (FCS, Boehringer Mannheim), 2 mM glutamine (BioWhittaker), standard antibiotics and 20 ng/ml of human EGF (Promega), at 37° C. and 5% CO2. In order to investigate the inhibitory activity of the compounds according to the invention, 1.5×10^4 cells per well were cultivated in triplicate in 96-well dishes in the above medium (200 μl), the cell proliferation being stimulated with either EGF (20 ng/ml) or murine IL-3. The IL-3 used was obtained from culture supernatants of the cell line X63/0 mIL-3 (cf. Karasuyama, H. et al. in Eur. J. Immunol. 18, 97-104 (1988)). The compounds according to the invention were dissolved in 100% dimethylsulphoxide (DMSO) and added to the cultures in various dilutions, the maximum DMSO concentration being 1%. The cultures were incubated for 48 hours at 37° C.
In order to determine the inhibitory activity of the compounds according to the invention the relative cell number was measured in O.D. units using the Cell Titer 96™ AQueous Non-Radioactive Cell Proliferation Assay (Promega). The relative cell number was calculated as a percentage of the control (F/LHERc cells without inhibitor) and the concentration of active substance which inhibits the proliferation of the cells by 50% (IC50) was derived therefrom.

T1 sequence (P00533 25-1210): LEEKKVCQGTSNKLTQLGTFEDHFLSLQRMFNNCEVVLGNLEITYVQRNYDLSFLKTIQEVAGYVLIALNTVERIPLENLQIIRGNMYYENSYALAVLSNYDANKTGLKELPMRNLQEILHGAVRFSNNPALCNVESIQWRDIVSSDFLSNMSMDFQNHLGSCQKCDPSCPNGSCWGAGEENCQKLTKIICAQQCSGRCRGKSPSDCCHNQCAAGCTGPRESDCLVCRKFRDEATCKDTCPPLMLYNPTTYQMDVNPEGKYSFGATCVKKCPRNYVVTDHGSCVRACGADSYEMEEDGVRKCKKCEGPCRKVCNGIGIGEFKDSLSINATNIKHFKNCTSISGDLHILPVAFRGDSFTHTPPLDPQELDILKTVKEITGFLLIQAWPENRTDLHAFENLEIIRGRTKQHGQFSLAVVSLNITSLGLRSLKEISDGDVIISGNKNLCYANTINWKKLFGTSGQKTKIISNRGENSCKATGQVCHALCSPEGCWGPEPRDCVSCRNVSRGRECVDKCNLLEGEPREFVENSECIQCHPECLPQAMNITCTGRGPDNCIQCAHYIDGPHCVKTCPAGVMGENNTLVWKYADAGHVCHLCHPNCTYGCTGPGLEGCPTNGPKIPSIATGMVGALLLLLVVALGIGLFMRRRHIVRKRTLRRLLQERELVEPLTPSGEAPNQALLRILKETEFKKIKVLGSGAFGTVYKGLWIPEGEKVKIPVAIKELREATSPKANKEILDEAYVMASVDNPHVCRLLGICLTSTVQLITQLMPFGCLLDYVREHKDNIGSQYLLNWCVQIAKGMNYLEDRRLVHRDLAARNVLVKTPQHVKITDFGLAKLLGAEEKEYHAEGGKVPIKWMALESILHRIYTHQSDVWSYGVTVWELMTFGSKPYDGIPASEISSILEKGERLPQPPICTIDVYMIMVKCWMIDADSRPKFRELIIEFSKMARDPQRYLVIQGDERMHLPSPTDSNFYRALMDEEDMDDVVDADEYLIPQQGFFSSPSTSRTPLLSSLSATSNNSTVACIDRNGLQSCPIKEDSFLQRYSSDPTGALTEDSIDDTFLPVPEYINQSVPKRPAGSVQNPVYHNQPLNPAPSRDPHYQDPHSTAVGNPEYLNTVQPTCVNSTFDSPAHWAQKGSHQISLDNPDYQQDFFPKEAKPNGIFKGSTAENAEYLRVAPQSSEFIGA

Row | SMILES | pIC50 (human EGF-R) | melting point
1 | CN(CCOc1cc2ncnc(Nc3ccc(F)c(Cl)c3)c2cc1OC1CCCC1)C1COC(=O)C1 (centres unmarked) [2(1), 4-[(3-Chloro-4-fluorophenyl)amino]-6-cyclopentyloxy-7-{2-[N-(2-oxo-tetrahydrofuran-4-yl)-N-methyl-amino]-ethoxy}-quinazoline] | 7.44 | –
2 | COc1cc2ncnc(Nc3ccc(F)c(Cl)c3)c2cc1OCCN1CC(=O)O[C@@H](C)C1 [3(25), 4-[(3-Chloro-4-fluorophenyl)amino]-6-[2-((S)-6-methyl-2-oxo-morpholin-4-yl)-ethoxy]-7-methoxy-quinazoline] | – | 212 to 213 °C
3 | CN(CCCOc1cc2c(Nc3ccc(F)c(Cl)c3)ncnc2cc1OC1CCC1)C1COC(=O)C1 (centres unmarked) [Example 2(2), 4-[(3-Chloro-4-fluorophenyl)amino]-6-{3-[N-(2-oxo-tetrahydrofuran-4-yl)-N-methyl-amino]-propyloxy}-7-cyclobutyloxy-quinazoline] | – | 147.5 to 151 °C
4 | COc1cc2ncnc(Nc3cccc(Br)c3)c2cc1OCCN1CC(=O)O[C@H](C)C1 [Example 3(1), 4-[(3-Bromo-phenyl)amino]-6-[2-((R)-6-methyl-2-oxo-morpholin-4-yl)-ethoxy]-7-methoxy-quinazoline] | – | 193 °C
5 | COc1cc2ncnc(Nc3ccc(F)c(Cl)c3)c2cc1OCCN1CC(=O)O[C@H](C)C1 [Example 3(2), 4-[(3-Chloro-4-fluorophenyl)amino]-6-[2-((R)-6-methyl-2-oxo-morpholin-4-yl)-ethoxy]-7-methoxy-quinazoline] | – | 208 °C
6 | C[C@@H]1CN(CCCOc2cc3c(Nc4ccc(F)c(Cl)c4)ncnc3cc2OC2CCC2)CC(=O)O1 [Example 3(6), 4-[(3-Chloro-4-fluorophenyl)amino]-6-[3-((R)-6-methyl-2-oxo-morpholin-4-yl)-propyloxy]-7-cyclobutyloxy-quinazoline] | – | 185.5 to 189.5 °C
7 | CC1(C)COC(=O)CN1CCCOc1cc2c(Nc3ccc(F)c(Cl)c3)ncnc2cc1OC1CCC1 [Example 3(7), 4-[(3-Chloro-4-fluorophenyl)amino]-6-[3-(5,5-dimethyl-2-oxo-morpholin-4-yl)-propyloxy]-7-cyclobutyloxy-quinazoline] | – | 214 to 216 °C
8 | C[C@@H]1CN(CCCOc2cc3c(Nc4ccc(F)c(Cl)c4)ncnc3cc2OCC2CC2)CC(=O)O1 [Example 3(8), 4-[(3-Chloro-4-fluorophenyl)amino]-6-[3-((R)-6-methyl-2-oxo-morpholin-4-yl)-propyloxy]-7-cyclopropylmethoxy-quinazoline] | – | 160.5 to 163 °C
9 | C[C@@H]1CN(CCOc2cc3c(Nc4ccc(F)c(Cl)c4)ncnc3cc2OC2CCCC2)CC(=O)O1 [Example 3(11), 4-[(3-Chloro-4-fluorophenyl)amino]-6-[2-((R)-6-methyl-2-oxo-morpholin-4-yl)-ethoxy]-7-cyclopentyloxy-quinazoline] | – | 176 to 178 °C
10 | COc1cc2ncnc(Nc3ccc(F)c(Cl)c3)c2cc1OCCCN1CC(=O)O[C@@H](C)C1 [Example 3(23), 4-[(3-Chloro-4-fluorophenyl)amino]-6-[3-((S)-6-methyl-2-oxo-morpholin-4-yl)-propyloxy]-7-methoxy-quinazoline] | – | 183 to 186 °C
11 | COc1cc2ncnc(Nc3ccc(F)c(Cl)c3)c2cc1OCCN(CC(=O)O)C[C@H](C)O [Example 3(26), 4-[(3-Chloro-4-fluorophenyl)amino]-6-{2-[N-(carboxymethyl)-N-((S)-2-hydroxy-propyl)-amino]-ethoxy}-7-methoxy-quinazoline] | – | 187 to 190 °C
12 | COc1cc2ncnc(Nc3cccc(Br)c3)c2cc1OCCN1CC(=O)O[C@@H](C)C1 [Example 3, 4-[(3-Bromo-phenyl)amino]-6-[2-((S)-6-methyl-2-oxo-morpholin-4-yl)-ethoxy]-7-methoxy-quinazoline] | – | 190 °C
13 | COc1cc2ncnc(Nc3cccc(Br)c3)c2cc1OCCN(CC(=O)OC(C)(C)C)C[C@@H](C)O [Example 4(1), 4-[(3-Bromo-phenyl)amino]-6-(2-{N-[(tert.butyloxycarbonyl)methyl]-N-((R)-2-hydroxy-propyl)-amino}-ethoxy)-7-methoxy-quinazoline] | – | 130 °C

Other lines, results leading:

Row | pIC50 (human EGF-R) | melting point | SMILES
14 | 7.54 | – | CC1(C)CN(CCOc2cc3ncnc(Nc4ccc(F)c(Cl)c4)c3cc2OCC2CC2)CC(=O)O1 [1(1), 4-[(3-Chloro-4-fluorophenyl)amino]-6-cyclopropylmethoxy-7-[2-(6,6-dimethyl-2-oxo-morpholin-4-yl)-ethoxy]-quinazoline]
15 | 7.54 | 212 to 214 °C | CC1(C)CN(CCCOc2cc3c(Nc4ccc(F)c(Cl)c4)ncnc3cc2OC2CCC2)CC(=O)O1 [1(2), 4-[(3-Chloro-4-fluorophenyl)amino]-7-cyclobutyloxy-6-[3-(6,6-dimethyl-2-oxo-morpholin-4-yl)-propyloxy]-quinazoline]
16 | 7.23 | – | CC1(C)CN(CCOc2cc3ncnc(Nc4ccc(F)c(Cl)c4)c3cc2OCC2CCCC2)CC(=O)O1 [Example 1, 4-[(3-Chloro-4-fluorophenyl)amino]-6-cyclopentylmethoxy-7-[2-(6,6-dimethyl-2-oxo-morpholin-4-yl)-ethoxy]-quinazoline]
17 | – | 160 to 162 °C | C[C@H]1CN(CCCOc2cc3c(Nc4ccc(F)c(Cl)c4)ncnc3cc2OCC2CC2)CC(=O)O1 [Example 3(9), 4-[(3-Chloro-4-fluorophenyl)amino]-6-[3-((S)-6-methyl-2-oxo-morpholin-4-yl)-propyloxy]-7-cyclopropylmethoxy-quinazoline]
18 | – | 229 to 232 °C | COc1cc2ncnc(Nc3ccc(F)c(Cl)c3)c2cc1OCCN1CC(=O)OC(C)(C)C1 [Example 3(27), 4-[(3-Chloro-4-fluorophenyl)amino]-6-[2-(6,6-dimethyl-2-oxo-morpholin-4-yl)-ethoxy]-7-methoxy-quinazoline]
19 | – | 195 to 196 °C | CC1(C)CN(CCOc2cc3c(Nc4ccc(F)c(Cl)c4)ncnc3cc2O[C@@H]2CCOC2)CC(=O)O1 [Example 3(28), 4-[(3-chloro-4-fluorophenyl)amino]-6-[2-(6,6-dimethyl-2-oxo-morpholin-4-yl)-ethoxy]-7-((R)-tetrahydrofuran-3-yloxy)-quinazoline]
20 | – | 184 °C | CC1(C)CN(CCOc2cc3c(Nc4ccc(F)c(Cl)c4)ncnc3cc2OC[C@H]2CCCO2)CC(=O)O1 [Example 3(29), 4-[(3-chloro-4-fluorophenyl)amino]-6-[2-(6,6-dimethyl-2-oxo-morpholin-4-yl)-ethoxy]-7-[(R)-(tetrahydrofuran-2-yl)methoxy]-quinazoline]
21 | – | 202 to 205 °C | CC1(C)CN(CCOc2cc3ncnc(Nc4ccc(F)c(Cl)c4)c3cc2O[C@H]2CCOC2)CC(=O)O1 [Example 3(30), 4-[(3-chloro-4-fluorophenyl)amino]-7-[2-(6,6-dimethyl-2-oxo-morpholin-4-yl)-ethoxy]-6-((S)-tetrahydrofuran-3-yloxy)-quinazoline]
22 | – | 182 °C | CC1(C)CN(CCOc2cc3ncnc(Nc4ccc(F)c(Cl)c4)c3cc2OC[C@@H]2CCCO2)CC(=O)O1 [Example 3(31), 4-[(3-chloro-4-fluorophenyl)amino]-7-[2-(6,6-dimethyl-2-oxo-morpholin-4-yl)-ethoxy]-6-[(S)-(tetrahydrofuran-2-yl)methoxy]-quinazoline]
